According to patent US8778966B2, “Quinolinone derivatives as PARP and tank inhibitors” (Janssen Pharmaceutica, NV, priority 2007, dated 2014):

Tests used:
Format in all cases: cell-based, human
[1] = system: PC-3 cells; assay: Antiproliferative activity, Alamar Blue assay, PC-3 cells; conditions: Homo sapiens, PC-3, PC3 cells, Alamar Blue; read-out: PC3 antiproliferative activity pIC50 (converted)
Outline: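 PC-3 cells seeded at 4.5×10^3 cells/ml, left to adhere 24 hr, then exposed to compound for 4 days. Resazurin (Alamar Blue) added for a further 24 hrs at 37° C; fluorescence read at 540/590 nm. Viability as % of untreated control, mean of 3 wells; IC50 by probit analysis, reported as pIC50.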

[2] = system: HCT116 cells; assay: Antiproliferative activity, Alamar Blue assay, HCT116 cells; conditions: Homo sapiens, HCT-116, HCT116 cells, Alamar Blue; read-out: HCT116 antiproliferative activity pIC50 (converted)
Outline: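 HCT116 cells seeded, adhered 24 h, then exposed to compound for 4 days; Alamar Blue (resazurin) added for 4 h at 37 °C, fluorescence read at 540/590 nm. Viability as % of untreated control, triplicate wells; IC50 by probit analysis, reported as pIC50.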

[3] = system: HCT116 cells; assay: Mitotic arrest assay on HCT116 cells (phospho-histone H3 Ser10); conditions: Homo sapiens, HCT-116, HCT116 cells; lowest active dose; read-out: Mitotic arrest HCT116 LAD (converted)
Outline: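 Seeded overnight, then compound-treated 6 h at 37 °C (≤0.1% DMSO); fixed, stained with Alexa Fluor 488 anti-phospho-H3 (Ser10) plus Hoechst 33342, imaged on InCell Analyzer 1000. Blank-subtracted signal divided by SD (sigma), triplicate; value is lowest dose giving sigma >5 (LAD).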

| Structure (SMILES) | IC50 [1] [µM] | IC50 [2] [µM] | minimal effective concentration [3] [µM] |
| --- | --- | --- | --- |
| Cc1cc2ccc(C(C)(C#N)Cc3cccc(OCC4CCOCC4)c3)cc2[nH]c1=O (stereo not drawn) [Compound 261] | 6.31 | 5.01 | 1 |
| CCc1cc2ccc(C(C)(C#N)Cc3cc(C(F)(F)F)ccc3F)cc2[nH]c1=O (stereo not drawn) [Compound 283] | 2 | 0.794 | 0.3 |
| CCOc1cccc(CC(C)(C#N)c2ccc3cc(CC)c(=O)[nH]c3c2)c1 (stereo not drawn) [Compound 285] | 1.58 | 0.794 | 0.3 |
| CCc1cc2ccc(C(C)(C#N)Cc3cc(C(C)C)ccc3OC)cc2[nH]c1=O (stereo not drawn) [Compound 288] | 2 | 10 | 1 |
| CCc1cc2ccc(C(C)(C#N)Cc3cc(OC)c(OC)c(OC)c3)cc2[nH]c1=O (stereo not drawn) [Compound 289] | 0.316 | 0.126 | 0.1 |
| CCc1cc2ccc(C(C)(C#N)CN(C)Cc3ccc(C#N)cc3)cc2[nH]c1=O (stereo not drawn) [Compound 300] | 0.501 | 0.631 | 0.3 |
| CCc1cc2ccc(C(C)(C#N)CNCc3ccc(C#N)cc3)cc2[nH]c1=O (stereo not drawn) [Compound 302] | 5.01 | 5.01 | 1 |
| Cc1cc2ccc(C(C)(C#N)Cc3cccc(Oc4ccccc4)c3)cc2[nH]c1=O (stereo not drawn) [Compound 305] | 3.16 | 0.794 | 0.3 |
| CCc1cc2ccc(C(C)(C#N)CN3CCC(c4ccccc4)CC3)cc2[nH]c1=O (stereo not drawn) [Compound 375] | 1 | 2 | 0.3 |
| CCc1cc2ccc(C(C)(C#N)CN3CCN(c4ccc(C#N)cn4)CC3)cc2[nH]c1=O (stereo not drawn) [Compound 377] | 0.794 | 1 | 0.3 |
| CCc1cc2ccc(C(C)(C#N)Cc3cc(Br)cc4c3OCC4)cc2[nH]c1=O (stereo not drawn) [Compound 378] | 0.794 | 0.501 | 0.1 |
| CCc1cc2ccc(C(C)(C#N)Cc3cccc4[nH]ccc34)cc2[nH]c1=O (stereo not drawn) [Compound 379] | 1.26 | 1.26 | 0.3 |
| Cc1cc2ccc([C@](C)(C#N)[C@H]3CCc4ccccc43)cc2[nH]c1=O [Compound 387] | 5.01 | 2.51 | 3 |
| Cc1cc2ccc(C(C)(C#N)C3CCc4ccccc43)cc2[nH]c1=O (stereo not drawn) [Compound 392] | 0.794 | 0.398 | 0.3 |
| Cc1cc2ccc(C(C)(C#N)C3CCCc4ccccc43)cc2[nH]c1=O (stereo not drawn) [Compound 404] | 3.98 | 1.58 | 1 |
| Cc1cc2ccc(C(C)(C#N)Cc3cccc(/C=C/CCO)c3)cc2[nH]c1=O (stereo not drawn) [Compound 409] | 0.501 | 0.398 | 0.3 |

Continued, in another order:

| IC50 [1] [µM] | IC50 [2] [µM] | Structure (SMILES) | minimal effective concentration [3] [µM] |
| --- | --- | --- | --- |
| 0.2 | 0.158 | CCc1cc2ccc(C(C)(C#N)Cc3cc(Br)cc(N(C)C)c3)cc2[nH]c1=O (stereo not drawn) [Compound 260] | 0.1 |
| 0.631 | 0.794 | CCc1cc2ccc(C(C)(C#N)Cc3cc(F)ccc3F)cc2[nH]c1=O (stereo not drawn) [Compound 280] | 0.3 |
| 1.58 | 2 | CCc1cc2ccc(C(C)(C#N)Cc3ccc(F)c(F)c3)cc2[nH]c1=O (stereo not drawn) [Compound 281] | 1 |
| 2 | 5.01 | CCc1cc2ccc(C(C)(C#N)Cc3cccc(OC)c3F)cc2[nH]c1=O (stereo not drawn) [Compound 286] | 1 |
| 0.251 | 0.2 | CCc1cc2ccc(C(C)(C#N)Cc3nc(C#N)cc(OC)n3)cc2[nH]c1=O (stereo not drawn) [Compound 313] | 0.3 |
| 5.01 | 5.01 | CCc1cc2ccc(C(C)(C#N)Cc3cc(N(C)C)nc(C#N)n3)cc2[nH]c1=O (stereo not drawn) [Compound 317] | 1 |
| 0.631 | 0.631 | CCc1cc2ccc(C(C)(C#N)Cc3nc(C#N)cc(N(C)C)n3)cc2[nH]c1=O (stereo not drawn) [Compound 318] | 0.3 |
| 3.98 | 2.51 | CCc1cc2ccc(C(C)(C#N)Cc3cc(C#N)nc(C)n3)cc2[nH]c1=O (stereo not drawn) [Compound 319] | 0.3 |
| 0.631 | 0.398 | CCc1cc2ccc(C(C)(C#N)Cc3cc(N(C)C)nc(N(C)C)n3)cc2[nH]c1=O (stereo not drawn) [Compound 320] | 0.3 |
| 2.51 | 2 | CCc1cc2ccc(C(C)(C#N)Cc3cc(N(C)C)nc(C)n3)cc2[nH]c1=O (stereo not drawn) [Compound 322] | 1 |
| 1 | 0.631 | CCc1cc2ccc(C(C)(C#N)Cc3cc(Cl)nc(N(C)C)c3)cc2[nH]c1=O (stereo not drawn) [Compound 323] | 0.3 |
| 3.16 | 2 | CCc1cc2ccc(C(C)(C#N)Cc3cccc(NC)n3)cc2[nH]c1=O (stereo not drawn) [Compound 339] | 1 |
| 0.501 | 0.398 | CCc1cc2ccc(C(C)(C#N)Cc3cc(Cl)nc(OC)c3)cc2[nH]c1=O (stereo not drawn) [Compound 351] | 0.1 |
| 6.31 | 3.16 | CCc1cc2ccc(C(C)(C#N)Cc3cc(N(C)C)nc(OC)n3)cc2[nH]c1=O (stereo not drawn) [Compound 354] | 1 |
| 0.398 | 0.2 | CCc1cc2ccc(C(C)(C#N)Cc3nc(OC)cc(N(C)C)n3)cc2[nH]c1=O (stereo not drawn) [Compound 355] | 0.1 |
| 0.631 | 0.631 | CCc1cc2ccc(C(C)(C#N)Cc3cc(Cl)nc(C)n3)cc2[nH]c1=O (stereo not drawn) [Compound 365] | 0.3 |
